Among the test systems are COLO 205 colon; IGROV1 ovarian; NCI-H522 lung; NCI/ADR-RES ovarian; OVCAR-5 ovarian; OVCAR-8 ovarian; SK-MEL-5 melanoma; SR leukemia; T-47D breast; UACC-62 melanoma.
Assay in all cases: growth of human tumour cells (NCI), 48 h

Structures are written as SMILES.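 Five concentrations, 48 hours, 96-well plates. GI50 is the concentration that inhibits growth by half. TGI is the concentration that stops growth completely.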

For the compound `Cc1c(C(=O)/C=C/c2ccc(O)cc2)nnn1-c1ccnc2c(C(F)(F)F)cccc12`, the GI50 was 5.68 µM in the assay with COLO 205 colon; 21.9 µM with IGROV1 ovarian; 6.2 µM in the assay on NCI-H522 lung; 13.9 µM in the assay on NCI/ADR-RES ovarian; over 100 µM in the assay with OVCAR-5 ovarian; 10 µM in the assay with OVCAR-8 ovarian. The GI50 is 4.81 µM in the assay on SK-MEL-5 melanoma, 2.29 µM with SR leukemia, 5.53 µM in the assay with T-47D breast and 18.7 µM in the assay on UACC-62 melanoma. Besides, the TGI in the assay on COLO 205 colon is 34.8 µM; with IGROV1 ovarian it was over 100 µM; in the assay with NCI-H522 lung it was over 100 µM; in the assay on NCI/ADR-RES ovarian, over 100 µM; in the assay on OVCAR-5 ovarian, over 100 µM; in the assay on OVCAR-8 ovarian, over 100 µM. Besides, the TGI was 24.8 µM in the assay on SK-MEL-5 melanoma, 9.86 µM with SR leukemia, over 100 µM in the assay with T-47D breast and over 100 µM in the assay with UACC-62 melanoma.
As to `FC(F)(F)c1ccc2c(c1)N(CCCN1CCN(C3CC3)CC1)c1ccccc1S2`, the GI50 in the assay on COLO 205 colon was 9.45 µM; in the assay with IGROV1 ovarian it was 11.6 µM; in the assay with NCI-H522 lung, 11.5 µM; in the assay with NCI/ADR-RES ovarian, 10.3 µM; in the assay on OVCAR-5 ovarian, 13.2 µM; in the assay on OVCAR-8 ovarian, 13 µM. Further, the GI50 in the assay with SK-MEL-5 melanoma was 4.08 µM; in the assay with SR leukemia, 3.79 µM; in the assay with T-47D breast it was 12.5 µM; in the assay on UACC-62 melanoma it was 14.1 µM. The TGI is 21.5 µM with COLO 205 colon; 28.3 µM in the assay on IGROV1 ovarian; 25.8 µM with NCI-H522 lung; 23.1 µM in the assay on NCI/ADR-RES ovarian; 27.6 µM in the assay with OVCAR-5 ovarian; 26.8 µM with OVCAR-8 ovarian. In addition, the TGI came to 14.4 µM in the assay on SK-MEL-5 melanoma, 15.6 µM with SR leukemia, 26.9 µM with T-47D breast and 30.1 µM in the assay on UACC-62 melanoma.
Take `COc1nccc(-c2c(-c3ccc(F)cc3)ncn2C2CCC(O)CC2)n1` (stereo not given): the GI50 with COLO 205 colon is 99.6 µM; in the assay on IGROV1 ovarian it was 22.2 µM; with NCI-H522 lung, over 60.1 µM; in the assay on NCI/ADR-RES ovarian, over 100 µM; in the assay on OVCAR-5 ovarian, 43.8 µM; in the assay on OVCAR-8 ovarian it was 89.1 µM. The GI50 is 43.1 µM in the assay with SK-MEL-5 melanoma, 43 µM in the assay on SR leukemia, 54.5 µM in the assay with T-47D breast and over 86.9 µM in the assay on UACC-62 melanoma. The TGI in the assay on COLO 205 colon, with IGROV1 ovarian, in the assay on NCI-H522 lung, in the assay on NCI/ADR-RES ovarian, in the assay with OVCAR-5 ovarian and in the assay on OVCAR-8 ovarian was over 100 µM each time. Moreover, the TGI in the assay on SK-MEL-5 melanoma, in the assay on SR leukemia, with T-47D breast and in the assay with UACC-62 melanoma was over 100 µM in each case.
Turning to `Cc1sc2ncnc(Sc3nc4ccccc4[nH]3)c2c1C`, the GI50 is 33.5 µM in the assay on COLO 205 colon; 33.2 µM in the assay with IGROV1 ovarian; 21.5 µM with NCI-H522 lung; 29.5 µM in the assay on NCI/ADR-RES ovarian; 39.7 µM in the assay on OVCAR-5 ovarian; 20.7 µM in the assay with OVCAR-8 ovarian. The GI50 in the assay with SK-MEL-5 melanoma was 22 µM; with SR leukemia it was 10.6 µM; with T-47D breast it was 18.1 µM; in the assay with UACC-62 melanoma, 17.3 µM. Moreover, the TGI in the assay on COLO 205 colon was over 100 µM; with IGROV1 ovarian, over 100 µM; with NCI-H522 lung, 61.2 µM; in the assay on NCI/ADR-RES ovarian it was over 100 µM; in the assay with OVCAR-5 ovarian, over 100 µM; in the assay with OVCAR-8 ovarian, 62.7 µM. Also, the TGI with SK-MEL-5 melanoma was over 100 µM; with SR leukemia, 23 µM; in the assay on T-47D breast, 62.9 µM; with UACC-62 melanoma, over 100 µM.
As for `CC(=O)OCC(=O)[C@@]1(O)[C@H](C)C[C@H]2[C@@H]3C=C(C)C4=Cc5c(cnn5-c5ccc(F)cc5)C[C@]4(C)[C@H]3[C@@H](O)C[C@@]21C`, the GI50 in the assay with COLO 205 colon was 1.74 µM; with IGROV1 ovarian, 2.85 µM; in the assay with NCI-H522 lung, 1.84 µM; in the assay with NCI/ADR-RES ovarian, 1.9 µM; with OVCAR-5 ovarian, 1.41 µM; with OVCAR-8 ovarian, 2.58 µM. The GI50 with SK-MEL-5 melanoma was 1.26 µM; in the assay with SR leukemia, 2.35 µM; with T-47D breast it was 2.75 µM; in the assay with UACC-62 melanoma, 1.73 µM. Further, the TGI was found to be 3.34 µM with COLO 205 colon; 12.8 µM in the assay with IGROV1 ovarian; 3.82 µM in the assay on NCI-H522 lung; 6.82 µM in the assay with NCI/ADR-RES ovarian; 4.57 µM in the assay on OVCAR-5 ovarian; 11.3 µM in the assay with OVCAR-8 ovarian. Further, the TGI with SK-MEL-5 melanoma is 2.53 µM; in the assay with SR leukemia, 7.93 µM; with T-47D breast it was 8.72 µM; in the assay on UACC-62 melanoma, 3.78 µM.
On to `CC(C)(C)Cn1c(N)nc2ccc(-c3[nH]c(C(C)(C)C)nc3-c3ccc(F)cc3)nc21`, for which the GI50 in the assay on COLO 205 colon was 7.76 µM; with IGROV1 ovarian, 2.66 µM; in the assay with NCI-H522 lung, 8.5 µM; in the assay on NCI/ADR-RES ovarian it was 8.67 µM; in the assay on OVCAR-5 ovarian, 13.7 µM; in the assay on OVCAR-8 ovarian it was 10.8 µM. Also, the GI50 in the assay on SK-MEL-5 melanoma was 11 µM; in the assay on SR leukemia, 10.5 µM; in the assay on T-47D breast it was 5.34 µM; in the assay on UACC-62 melanoma, 10.1 µM. Moreover, the TGI in the assay on COLO 205 colon stood at 21.7 µM; in the assay with IGROV1 ovarian it was 16.4 µM; in the assay on NCI-H522 lung, 23.8 µM; with NCI/ADR-RES ovarian, 33.1 µM; in the assay with OVCAR-5 ovarian it was 29.3 µM; in the assay on OVCAR-8 ovarian, 25.8 µM. The TGI with SK-MEL-5 melanoma is 23 µM; in the assay with SR leukemia, 47.9 µM; in the assay on T-47D breast, 23.7 µM; in the assay on UACC-62 melanoma, 23.2 µM.
With `OCCNc1nc(NCCO)nc(Nc2ccc(C3=NN(c4cc(Cl)cc(Cl)c4)C(c4ccc(Cl)cc4)C3)cc2)n1` (stereo not given), the GI50 in the assay with COLO 205 colon is 1.91 µM; with IGROV1 ovarian, 2.48 µM; with NCI-H522 lung it was 2.03 µM; in the assay on NCI/ADR-RES ovarian it was 2.6 µM; in the assay with OVCAR-5 ovarian it was 1.96 µM; in the assay on OVCAR-8 ovarian, 2.08 µM. Further, the GI50 in the assay on SK-MEL-5 melanoma is 1.81 µM; with SR leukemia, 1.45 µM; with T-47D breast it was 1.5 µM; in the assay with UACC-62 melanoma, 1.72 µM. Also, the TGI in the assay on COLO 205 colon is 3.84 µM; with IGROV1 ovarian it was 5.68 µM; with NCI-H522 lung it was 4.66 µM; in the assay with NCI/ADR-RES ovarian it was 7.08 µM; with OVCAR-5 ovarian it was 4.43 µM; in the assay on OVCAR-8 ovarian it was 4.75 µM. The TGI in the assay with SK-MEL-5 melanoma is 3.37 µM; with SR leukemia, 3.31 µM; in the assay on T-47D breast, 3.88 µM; in the assay on UACC-62 melanoma, 3.37 µM.
Turning to `O=C(O)C(/C=C/c1ccco1)=N\Nc1nc(-c2ccc(Cl)cc2)cs1`, the GI50 is 12.5 µM in the assay on COLO 205 colon; 7.93 µM in the assay on IGROV1 ovarian; 7.61 µM with NCI-H522 lung; 12.4 µM in the assay on NCI/ADR-RES ovarian; 46.4 µM in the assay on OVCAR-5 ovarian; 6.93 µM with OVCAR-8 ovarian. The GI50 with SK-MEL-5 melanoma was 14.8 µM; with SR leukemia it was 4.83 µM; with T-47D breast, 17.3 µM; with UACC-62 melanoma, 7.79 µM. Besides, the TGI was 45.8 µM with COLO 205 colon; 29.6 µM in the assay with IGROV1 ovarian; 41.3 µM in the assay on NCI-H522 lung; over 50 µM in the assay with NCI/ADR-RES ovarian; over 50 µM with OVCAR-5 ovarian; over 50 µM with OVCAR-8 ovarian. The TGI was over 50 µM in the assay on SK-MEL-5 melanoma, over 50 µM in the assay on SR leukemia, over 50 µM with T-47D breast and 17.7 µM in the assay on UACC-62 melanoma.
For the compound `CC[C@@]1(O)C(=O)NCc2c1cc1n(c2=O)Cc2cc3cc4c(cc3nc2-1)OCO4`, the GI50 with COLO 205 colon is 22.7 µM; with IGROV1 ovarian, 1.59 µM; in the assay with NCI-H522 lung, 0.517 µM; in the assay with NCI/ADR-RES ovarian it was 0.236 µM; in the assay on OVCAR-5 ovarian, 9.39 µM; in the assay on OVCAR-8 ovarian, 0.391 µM. The GI50 with SK-MEL-5 melanoma is 1.23 µM; in the assay with SR leukemia, under 0.0176 µM; in the assay with T-47D breast, 0.842 µM; in the assay on UACC-62 melanoma, 0.243 µM. Also, the TGI with COLO 205 colon was over 100 µM; with IGROV1 ovarian, 63.4 µM; in the assay with NCI-H522 lung, 54.6 µM; with NCI/ADR-RES ovarian it was 1.56 µM; in the assay with OVCAR-5 ovarian, over 88.2 µM; in the assay on OVCAR-8 ovarian, 6.99 µM. In addition, the TGI is 27.8 µM with SK-MEL-5 melanoma, 0.2 µM with SR leukemia, over 27.1 µM in the assay with T-47D breast and 29.4 µM in the assay with UACC-62 melanoma.

(Values after PubChem BioAssay (NCI).)
